What was measured:
Type in all cases: biochemical
PI3K α = target: T1, PI3K α (Homo sapiens, UniProt P42336); experiment: PI 3-Kinase HTRF inhibition assay, PI3K α; conditions: in vitro; read-out: PI3K α IC50
T1 construct: purchased Upstate
Procedure: (§1) Commercial kits or systems for assaying PI3-K activities are available. The commercially available kits or systems can be used to screen for inhibitors and/or agonists of PI3-Ks including but not limited to PI 3-Kinase α, β, δ, and γ. An exemplary system is PI 3-Kinase (human) HTRF™ Assay from Upstate. […] Briefly, the assay is a time resolved FRET assay that indirectly measures PIP3 product formed by the activity of a PI3-K. The kinase reaction is performed in a microtitre plate (e.g., a 384 well microtitre plate). The total reaction volume is approximately 20 ul per well. In the first step, each well receives 2 ul of test compound in 20% dimethylsulphoxide resulting in a 2% DMSO final concentration. Next, approximately 14.5 ul of a kinase/PIP2 mixture (diluted in 1× reaction buffer) is added per well for a final concentration of 0.25-0.3 ug/ml kinase and 10 μM PIP2. The plate is scaled and incubated for 15 minutes at room temperature. To start the reaction, 3.5 ul of ATP (diluted in 1× reaction buffer) is added per well for a final concentration of 10 μM ATP. The plate is sealed and incubated for 1 hour at room temperature. The reaction is stopped by adding 5 ul of Stop Solution per well and then 5 ul of Detection Mix is added per well. The plate is sealed, incubated for 1 hour at room temperature, and then read on an appropriate plate reader. Data is analyzed and IC50s are generated using GraphPad Prism 5. For PI3K α, β, δ, and γ, the nM concentration of inhibitor to reach IC50 is provided. […] Similar assays, and others known in the art, can be used to measure the percent inhibition of other kinases, including but not limited to PI3K class II kinases, phosphoinositide 4 kinases (PI4K), and phosphoinositide 5 kinases (PI5K).

PI3K β = target: T2, PI3K β (Homo sapiens, UniProt P42338); experiment: PI 3-Kinase HTRF inhibition assay, PI3K β; conditions: in vitro
T2 construct: purchased Upstate
Procedure: as §1

PI3K δ = target: T3, PI3K δ (Homo sapiens, UniProt O00329); experiment: PI 3-Kinase HTRF inhibition assay, PI3K δ; conditions: in vitro; read-out: PI3K δ IC50
T3 construct: purchased Upstate
Procedure: as §1

PI3K γ = target: T4, PI3K γ (Homo sapiens, UniProt P48736); experiment: PI 3-Kinase HTRF inhibition assay, PI3K γ; conditions: in vitro
T4 construct: purchased Upstate
T4 sequence (P48736 whole entry): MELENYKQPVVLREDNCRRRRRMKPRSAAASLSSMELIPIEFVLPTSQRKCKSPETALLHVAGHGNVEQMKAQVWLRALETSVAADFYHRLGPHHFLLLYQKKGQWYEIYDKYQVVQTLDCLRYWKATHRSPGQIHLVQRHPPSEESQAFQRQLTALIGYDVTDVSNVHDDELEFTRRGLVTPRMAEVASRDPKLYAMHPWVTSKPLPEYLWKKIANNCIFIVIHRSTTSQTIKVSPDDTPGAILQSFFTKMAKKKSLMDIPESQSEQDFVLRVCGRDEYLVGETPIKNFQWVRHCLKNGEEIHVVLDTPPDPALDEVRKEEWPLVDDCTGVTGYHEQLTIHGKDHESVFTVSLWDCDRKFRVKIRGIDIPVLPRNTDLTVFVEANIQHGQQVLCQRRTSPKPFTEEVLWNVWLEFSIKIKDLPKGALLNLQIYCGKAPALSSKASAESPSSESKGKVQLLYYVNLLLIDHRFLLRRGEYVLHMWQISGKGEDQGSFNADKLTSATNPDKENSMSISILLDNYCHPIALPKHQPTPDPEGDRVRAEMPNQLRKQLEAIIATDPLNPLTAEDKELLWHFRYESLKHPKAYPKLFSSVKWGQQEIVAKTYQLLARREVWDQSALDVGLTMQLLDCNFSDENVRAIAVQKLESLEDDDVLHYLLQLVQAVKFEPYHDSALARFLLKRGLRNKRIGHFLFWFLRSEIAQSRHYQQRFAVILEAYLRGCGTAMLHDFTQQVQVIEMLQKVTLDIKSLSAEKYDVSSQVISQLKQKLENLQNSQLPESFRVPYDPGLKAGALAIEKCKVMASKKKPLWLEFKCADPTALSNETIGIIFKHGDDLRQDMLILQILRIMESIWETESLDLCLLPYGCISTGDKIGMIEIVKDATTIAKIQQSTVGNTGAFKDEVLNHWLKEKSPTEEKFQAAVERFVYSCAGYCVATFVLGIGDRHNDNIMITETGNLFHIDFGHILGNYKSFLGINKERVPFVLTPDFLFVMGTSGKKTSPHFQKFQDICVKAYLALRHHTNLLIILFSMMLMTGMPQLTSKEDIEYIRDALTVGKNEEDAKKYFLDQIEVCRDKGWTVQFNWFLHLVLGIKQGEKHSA

T2 sequence (P42338 whole entry): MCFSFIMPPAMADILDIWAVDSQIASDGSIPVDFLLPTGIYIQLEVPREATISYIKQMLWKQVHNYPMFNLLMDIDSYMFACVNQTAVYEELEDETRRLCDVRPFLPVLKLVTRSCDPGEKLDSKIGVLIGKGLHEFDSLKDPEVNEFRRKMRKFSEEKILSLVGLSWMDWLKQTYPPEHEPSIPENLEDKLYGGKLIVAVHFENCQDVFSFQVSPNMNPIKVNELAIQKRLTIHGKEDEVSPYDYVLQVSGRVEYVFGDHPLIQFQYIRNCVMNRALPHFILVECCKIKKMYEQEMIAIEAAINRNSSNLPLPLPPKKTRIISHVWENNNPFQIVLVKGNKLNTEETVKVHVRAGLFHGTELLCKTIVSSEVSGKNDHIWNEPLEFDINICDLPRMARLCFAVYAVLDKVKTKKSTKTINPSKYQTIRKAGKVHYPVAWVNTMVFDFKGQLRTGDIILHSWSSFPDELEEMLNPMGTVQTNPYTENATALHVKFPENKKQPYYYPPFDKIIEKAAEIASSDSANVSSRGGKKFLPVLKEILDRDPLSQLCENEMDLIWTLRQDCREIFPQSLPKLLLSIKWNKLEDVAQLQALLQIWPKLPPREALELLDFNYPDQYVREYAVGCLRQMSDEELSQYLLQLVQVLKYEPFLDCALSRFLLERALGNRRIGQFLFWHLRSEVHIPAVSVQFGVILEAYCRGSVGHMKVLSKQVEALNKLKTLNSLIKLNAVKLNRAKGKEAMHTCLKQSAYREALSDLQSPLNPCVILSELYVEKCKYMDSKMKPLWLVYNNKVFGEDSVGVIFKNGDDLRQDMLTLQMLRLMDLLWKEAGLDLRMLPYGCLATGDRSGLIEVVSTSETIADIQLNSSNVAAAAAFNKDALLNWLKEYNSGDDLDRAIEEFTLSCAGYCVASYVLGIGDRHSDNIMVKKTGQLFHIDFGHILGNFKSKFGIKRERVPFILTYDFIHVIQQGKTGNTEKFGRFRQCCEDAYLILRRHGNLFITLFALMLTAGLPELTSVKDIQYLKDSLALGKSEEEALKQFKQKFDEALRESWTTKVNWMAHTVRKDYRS
T2 sequence (P27986 whole entry partner): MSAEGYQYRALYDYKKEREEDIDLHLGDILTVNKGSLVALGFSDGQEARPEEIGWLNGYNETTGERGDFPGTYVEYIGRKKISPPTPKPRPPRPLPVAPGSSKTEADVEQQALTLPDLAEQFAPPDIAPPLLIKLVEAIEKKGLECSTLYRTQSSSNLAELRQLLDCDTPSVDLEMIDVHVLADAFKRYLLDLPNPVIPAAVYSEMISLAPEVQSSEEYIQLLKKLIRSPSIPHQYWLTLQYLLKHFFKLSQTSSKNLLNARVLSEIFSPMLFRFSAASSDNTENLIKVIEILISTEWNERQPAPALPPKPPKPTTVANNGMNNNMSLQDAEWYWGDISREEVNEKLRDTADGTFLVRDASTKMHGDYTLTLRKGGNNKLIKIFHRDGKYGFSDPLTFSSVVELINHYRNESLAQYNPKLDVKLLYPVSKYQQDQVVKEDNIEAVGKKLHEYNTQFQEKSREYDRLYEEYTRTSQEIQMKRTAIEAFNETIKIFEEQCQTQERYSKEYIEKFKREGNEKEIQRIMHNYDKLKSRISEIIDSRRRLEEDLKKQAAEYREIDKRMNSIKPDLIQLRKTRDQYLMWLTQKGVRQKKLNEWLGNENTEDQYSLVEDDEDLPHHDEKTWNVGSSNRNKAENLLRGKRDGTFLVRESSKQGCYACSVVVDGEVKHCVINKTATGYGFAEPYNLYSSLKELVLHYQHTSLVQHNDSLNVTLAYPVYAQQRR
T1 sequence (P42336 whole entry): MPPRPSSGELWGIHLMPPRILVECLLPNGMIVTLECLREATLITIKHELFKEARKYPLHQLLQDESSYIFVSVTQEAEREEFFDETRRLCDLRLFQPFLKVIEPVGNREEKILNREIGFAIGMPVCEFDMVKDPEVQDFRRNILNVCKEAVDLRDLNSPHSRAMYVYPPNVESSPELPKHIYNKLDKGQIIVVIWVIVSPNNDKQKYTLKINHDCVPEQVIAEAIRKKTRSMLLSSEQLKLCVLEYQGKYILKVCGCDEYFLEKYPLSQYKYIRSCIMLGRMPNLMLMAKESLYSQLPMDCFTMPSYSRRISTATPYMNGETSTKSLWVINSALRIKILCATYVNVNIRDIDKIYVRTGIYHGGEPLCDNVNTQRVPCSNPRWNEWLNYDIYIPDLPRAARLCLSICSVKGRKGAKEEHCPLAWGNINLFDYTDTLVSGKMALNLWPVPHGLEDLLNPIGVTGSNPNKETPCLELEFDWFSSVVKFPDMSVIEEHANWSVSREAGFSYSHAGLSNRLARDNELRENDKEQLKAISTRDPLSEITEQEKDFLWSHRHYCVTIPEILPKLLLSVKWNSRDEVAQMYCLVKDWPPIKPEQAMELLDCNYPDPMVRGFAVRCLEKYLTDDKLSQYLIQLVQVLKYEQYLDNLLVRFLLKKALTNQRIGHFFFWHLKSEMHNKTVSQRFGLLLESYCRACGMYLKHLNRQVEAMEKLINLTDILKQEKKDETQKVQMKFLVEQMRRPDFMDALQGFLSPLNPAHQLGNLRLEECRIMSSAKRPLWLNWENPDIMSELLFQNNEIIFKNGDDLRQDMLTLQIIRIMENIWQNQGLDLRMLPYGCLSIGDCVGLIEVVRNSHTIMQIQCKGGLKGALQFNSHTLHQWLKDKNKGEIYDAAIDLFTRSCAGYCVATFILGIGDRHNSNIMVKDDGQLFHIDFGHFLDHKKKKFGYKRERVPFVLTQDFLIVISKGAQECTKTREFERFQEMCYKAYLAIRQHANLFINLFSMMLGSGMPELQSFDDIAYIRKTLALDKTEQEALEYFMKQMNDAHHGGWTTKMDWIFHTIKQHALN
T1 sequence (P27986 whole entry partner): as the sequence (P27986 whole entry partner) above
T3 sequence (O00329 whole entry): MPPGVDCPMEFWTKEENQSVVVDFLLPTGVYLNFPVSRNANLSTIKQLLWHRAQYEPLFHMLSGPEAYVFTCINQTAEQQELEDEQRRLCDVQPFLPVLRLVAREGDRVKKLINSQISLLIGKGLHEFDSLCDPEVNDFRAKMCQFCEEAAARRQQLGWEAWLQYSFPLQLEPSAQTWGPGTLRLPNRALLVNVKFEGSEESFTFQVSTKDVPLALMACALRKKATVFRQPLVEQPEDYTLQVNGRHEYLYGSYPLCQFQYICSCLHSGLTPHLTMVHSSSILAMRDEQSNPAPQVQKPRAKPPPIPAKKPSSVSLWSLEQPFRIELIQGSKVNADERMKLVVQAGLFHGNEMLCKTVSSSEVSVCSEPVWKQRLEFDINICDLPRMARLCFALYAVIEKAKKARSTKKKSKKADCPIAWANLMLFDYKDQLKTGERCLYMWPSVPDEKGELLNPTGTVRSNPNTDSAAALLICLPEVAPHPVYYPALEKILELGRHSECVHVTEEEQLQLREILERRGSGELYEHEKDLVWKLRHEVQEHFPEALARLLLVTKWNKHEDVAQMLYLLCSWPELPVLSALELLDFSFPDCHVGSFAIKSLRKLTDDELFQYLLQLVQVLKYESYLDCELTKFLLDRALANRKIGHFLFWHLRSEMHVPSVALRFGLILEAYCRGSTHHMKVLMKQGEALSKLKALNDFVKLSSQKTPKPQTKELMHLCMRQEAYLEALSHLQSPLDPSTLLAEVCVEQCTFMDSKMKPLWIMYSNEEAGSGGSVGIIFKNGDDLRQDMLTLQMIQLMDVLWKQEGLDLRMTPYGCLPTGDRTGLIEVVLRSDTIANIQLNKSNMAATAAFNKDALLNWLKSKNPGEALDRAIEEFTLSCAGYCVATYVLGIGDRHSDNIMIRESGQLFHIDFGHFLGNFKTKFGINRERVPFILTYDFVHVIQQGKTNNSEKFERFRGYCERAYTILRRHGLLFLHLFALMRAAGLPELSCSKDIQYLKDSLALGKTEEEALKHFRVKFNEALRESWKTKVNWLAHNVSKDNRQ
T3 sequence (P27986 whole entry partner): as the sequence (P27986 whole entry partner) above

Row | IC50 (PI3K α) | IC50 (PI3K β) | IC50 (PI3K δ) | IC50 (PI3K γ) | SMILES
1 | < 1000 nM | < 100 nM | < 10000 nM | < 10000 nM | C[C@H]1CN(c2cnc3ccc(-c4ccc5oc(N)nc5c4)nc3n2)CCN1 [Compound 1]
2 | < 100 nM | < 1000 nM | > 10000 nM | < 100 nM | Nc1nc2cc(-c3ccc4ncc(N5CCOCC5)nc4n3)ccc2o1 [Compound 2, 5-(3-morpholinopyrido[2,3-b]pyrazin-6-yl)benzo[d]oxazol-2-amine]
3 | < 1000 nM | < 10000 nM | > 10000 nM | < 1000 nM | Nc1nc2cc(-c3ccc4ncc(-c5cccnc5)nc4n3)ccc2o1 [Compound 3]
4 | < 1000 nM | < 1000 nM | < 10000 nM | < 10000 nM | CN1CCN(c2cnc3ccc(-c4ccc5oc(N)nc5c4)nc3n2)CC1 [Compound 4]
5 | < 100 nM | > 10000 nM | < 10000 nM | < 10000 nM | Nc1nc2cc(-c3ccc4ncc(N5CC(N6CCOCC6)C5)nc4n3)ccc2o1 [Compound 5]
6 | < 100 nM | < 1000 nM | < 1000 nM | < 1000 nM | CCOC(=O)N1CCN(c2cnc3ccc(-c4ccc5oc(N)nc5c4)nc3n2)CC1 [Compound 6]
7 | > 10000 nM | > 10000 nM | > 10000 nM | > 10000 nM | Nc1nc2cc(-c3ccc4nc(N5CCOCC5)cnc4n3)ccc2o1 [Compound 7]
8 | < 100 nM | > 10000 nM | < 10000 nM | < 1000 nM | CS(=O)(=O)N1CCN(C2CN(c3cnc4ccc(-c5ccc6oc(N)nc6c5)nc4n3)C2)CC1 [Compound 8]
9 | < 100 nM | < 10000 nM | < 10000 nM | < 100 nM | CCOC(=O)N1CC=C(c2cnc3ccc(-c4ccc5oc(N)nc5c4)nc3n2)CC1 [Compound 9]
10 | < 100 nM | > 10000 nM | < 10000 nM | < 10000 nM | C[C@H]1CN(C2CN(c3cnc4ccc(-c5ccc6oc(N)nc6c5)nc4n3)C2)CCN1 [Compound 10]
11 | < 100 nM | < 10000 nM | > 10000 nM | < 100 nM | Nc1nc2cc(-c3ccc4ncc(C5=CCOCC5)nc4n3)ccc2o1 [Compound 11]
12 | < 100 nM | > 10000 nM | < 10000 nM | > 10000 nM | C[C@@H]1CN(C2CN(c3cnc4ccc(-c5ccc6oc(N)nc6c5)nc4n3)C2)CCN1 [Compound 12]
13 | < 100 nM | > 10000 nM | > 10000 nM | < 100 nM | Nc1nc2cc(-c3ccc4ncc(N5CCC(F)(F)CC5)nc4n3)ccc2o1 [Compound 13]
14 | < 100 nM | < 10000 nM | < 10000 nM | < 100 nM | C[C@@H]1COCCN1c1cnc2ccc(-c3ccc4oc(N)nc4c3)nc2n1 [Compound 14]
15 | < 100 nM | < 10000 nM | > 10000 nM | < 100 nM | C[C@H]1COCCN1c1cnc2ccc(-c3ccc4oc(N)nc4c3)nc2n1 [Compound 15]
16 | < 1000 nM | > 10000 nM | > 10000 nM | – | CC1(C)CN(C2CN(c3cnc4ccc(-c5ccc6oc(N)nc6c5)nc4n3)C2)CCO1 [Compound 17]
17 | < 100 nM | – | – | < 100 nM | Nc1nc2cc(-c3ccc4ncc(N5CCN(C(=O)C6(N)CC6)CC5)nc4n3)ccc2o1 [Compound 41]
18 | < 100 nM | – | < 1000 nM | < 1000 nM | CC(C)(N)C(=O)N1CCN(c2cnc3ccc(-c4ccc5oc(N)nc5c4)nc3c2)CC1 [Compound 43, 2-amino-1-(4-(6-(2-aminobenzo[d]oxazol-5-yl)-1,5-naphthyridin-3-yl)piperazin-1-yl)-2-methylpropan-1-one]
19 | < 100 nM | < 1000 nM | < 1000 nM | – | CC(C)N1CCN(C2CN(c3cnc4ccc(-c5ccc6oc(N)nc6c5)nc4c3)C2)CC1 [Compound 72, 5-(7-(3-(4-isopropylpiperazin-1-yl)azetidin-1-yl)-1,5-naphthyridin-2-yl)benzo[d]oxazol-2-amine]

From patent US9359352B2, “Substituted benzimidazoles as PI3 kinase inhibitors” (Intellikine LLC, priority 2010, dated 2016)
